This passage reports IC50 results from BindingDB's records for doi:10.1021/jm050513m (The University of Texas At Houston, 2005).

The structures appear in SMILES notation. Numbered stars: 1 amine (or outer) side, 2 acyl side, 3 side chain; on linkers, the order of the positions; unused ones are H or OH. Square brackets hold non-standard residues; d marks the D form. Peptide text beside a SMILES is read from it. * marks the point of attachment. ξ: configuration not given here. pY = N[C@@H](Cc1ccc(OP(=O)(O)O)cc1)C(=O)O; NH(1R-phenylethyl) = C[C@@H](N*)c1ccccc1; Met(O2) = CS(=O)(=O)CC[C@H](N)C(=O)O; Met(O) = CS(=O)CC[C@H](N)C(=O)O; X3 = O=C(CN1CCN([*:1])CC1)[*:2]; Thr(3ξ) = CC(O)[C@H](N)C(=O)O; 3Abz = Nc1cccc(C(=O)O)c1; Ac6c = NC1(C(=O)O)CCCCC1; Inp = O=C(O)C1CCNCC1; NHBn = c1ccc(CN*)cc1; Ahx = NCCCCCC(=O)O; GABA = NCCCC(=O)O; NEt2 = CCN(CC)*

The test deals with Signal transducer and activator of transcription 3 (Mus musculus, UniProt P42227). The test can be described thus: Fluorescence Polarization Assay. The procedure:
Fluorescence polarization (FP) binding assay is utilizing the intrinsic property of the fluorescent probe, which will have low polarization value when free in solution. On binding to a target, the polarization of the probe will increase. Reaction mixtures of full length STAT3 alpha and the probe were placed in wells of a 96-well microtiter plate. The test peptide solution was added to each well. Fluorescence polarization was then read in a Tecan Polarian plate reader. The IC50 values were obtained from nonlinear regression analysis in the one-site competition mode. Peptides were assayed three times using three separate Stat3-probe preparations. IC50 values are reported as the mean of three IC50 values +/- the standard deviation.

Signal transducer and activator of transcription 3, sequence (P42227 whole entry): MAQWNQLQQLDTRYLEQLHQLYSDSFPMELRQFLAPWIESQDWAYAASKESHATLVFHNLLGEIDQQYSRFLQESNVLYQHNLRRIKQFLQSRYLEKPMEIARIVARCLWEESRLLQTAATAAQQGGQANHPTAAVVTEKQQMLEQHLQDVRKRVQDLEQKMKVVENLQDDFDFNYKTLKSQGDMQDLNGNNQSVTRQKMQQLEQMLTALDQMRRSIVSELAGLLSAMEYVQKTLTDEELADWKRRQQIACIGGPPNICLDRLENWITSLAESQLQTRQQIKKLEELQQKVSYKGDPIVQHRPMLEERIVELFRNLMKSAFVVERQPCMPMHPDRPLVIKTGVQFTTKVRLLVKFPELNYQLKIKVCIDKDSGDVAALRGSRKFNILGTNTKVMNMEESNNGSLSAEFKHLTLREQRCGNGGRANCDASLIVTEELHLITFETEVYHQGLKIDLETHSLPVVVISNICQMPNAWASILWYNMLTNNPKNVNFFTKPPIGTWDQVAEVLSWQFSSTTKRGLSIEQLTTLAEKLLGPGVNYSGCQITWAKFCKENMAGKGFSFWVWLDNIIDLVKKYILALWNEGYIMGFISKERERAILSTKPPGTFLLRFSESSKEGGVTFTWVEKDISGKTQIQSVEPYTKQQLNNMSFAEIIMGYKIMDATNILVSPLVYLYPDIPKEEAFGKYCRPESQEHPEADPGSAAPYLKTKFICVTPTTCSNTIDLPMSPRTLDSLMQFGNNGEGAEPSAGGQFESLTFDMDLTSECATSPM

Compound `CC(=O)N[C@@H](Cc1ccc(OP(=O)(O)O)cc1)C(=O)N[C@@H](CC(C)C)C(=O)N1CCC[C@H]1C(=O)N[C@@H](CCC(N)=O)C(N)=O` (Ac-[pY]LPQ-NH2) had an IC50 (pH 7.5, 22 °C) of 0.856 µM. Consider `CC(=O)N[C@@H](Cc1ccc(OP(=O)(O)O)cc1)C(=O)N[C@@H](CC(C)C)C(=O)N1CCC[C@H]1C(=O)N[C@@H](CCC(N)=O)C(=O)NCc1ccccc1` (Ac-[pY]LPQ-NHBn), for which the IC50 was found to be 0.409 µM.

Regarding `CC(=O)N[C@@H](Cc1ccc(OP(=O)(O)O)cc1)C(=O)N[C@@H](CC(C)C)C(=O)NC1(C(=O)N[C@@H](CCC(N)=O)C(=O)N[C@H](C(N)=O)C(C)O)CCCCC1` (stereo partly drawn) [4-[(2S)-2-{[(1S)-1-[(1-{[(1S)-3-carbamoyl-1-{[(1S,2S)-1-carbamoyl-2-hydroxypropyl]carbamoyl}propyl]carbamoyl}cyclohexyl)carbamoyl]-3-methylbutyl]carbamoyl}-2-acetamidoethyl]phenoxyphosphonic acid] (Ac-[pY]L[Ac6c]Q[Thr(3ξ)]-NH2), the IC50 (pH 7.5, 22 °C) was 13.4 µM.

Where the note is “pH 7.5, 22 °C”, `CC(=O)N[C@@H](Cc1ccc(OP(=O)(O)O)cc1)C(=O)N[C@@H](CC(C)C)C(=O)N1CCC(C(=O)N[C@@H](CCC(N)=O)C(=O)N[C@H](C(N)=O)C(C)O)CC1` (stereo partly drawn) [4-[(2S)-2-{[(2S)-1-(4-{[(1S)-3-carbamoyl-1-{[(1S,2S)-1-carbamoyl-2-hydroxypropyl]carbamoyl}propyl]carbamoyl}piperidin-1-yl)-4-methyl-1-oxopentan-2-yl]carbamoyl}-2-acetamidoethyl]phenoxyphosphonic acid] (Ac-[pY]L[Inp]Q[Thr(3ξ)]-NH2) displayed an IC50 of 34.6 µM. Same read-out and setting: the result for `CC(=O)N[C@@H](Cc1ccc(OP(=O)(O)O)cc1)C(=O)N[C@@H](CC(C)C)C(=O)N1CCN(CC(=O)N[C@@H](CCC(N)=O)C(=O)N[C@H](C(N)=O)C(C)O)CC1` (stereo partly drawn) [4-[(2S)-2-{[(2S)-1-[4-({[(1S)-3-carbamoyl-1-{[(1S,2S)-1-carbamoyl-2-hydroxypropyl]carbamoyl}propyl]carbamoyl}methyl)piperazin-1-yl]-4-methyl-1-oxopentan-2-yl]carbamoyl}-2-acetamidoethyl]phenoxyphosphonic acid] (Ac-[pY]L[X3]Q[Thr(3ξ)]-NH2) reads 57.1 µM; that for `CC(=O)N[C@@H](Cc1ccc(OP(=O)(O)O)cc1)C(=O)N[C@@H](CC(C)C)C(=O)N1CCC[C@@H]1C(=O)N[C@@H](CCC(N)=O)C(=O)N[C@H](C(N)=O)C(C)O` (stereo partly drawn) [4-[(2S)-2-{[(2S)-1-[(2R)-2-{[(1S)-3-carbamoyl-1-{[(1S,2S)-1-carbamoyl-2-hydroxypropyl]carbamoyl}propyl]carbamoyl}pyrrolidin-1-yl]-4-methyl-1-oxopentan-2-yl]carbamoyl}-2-acetamidoethyl]phenoxyphosphonic acid], over 100 µM. For `CC(=O)N[C@@H](Cc1ccc(OP(=O)(O)O)cc1)C(=O)N[C@@H](CC(C)C)C(=O)N1CCC[C@H]1C(=O)NC1CCCC(C(N)=O)C1` (stereo partly drawn) [4-[(2S)-2-{[(2S)-1-[(2S)-2-[(3-carbamoylcyclohexyl)carbamoyl]pyrrolidin-1-yl]-4-methyl-1-oxopentan-2-yl]carbamoyl}-2-acetamidoethyl]phenoxyphosphonic acid], the IC50 worked out at 9.81 µM. Still for that read-out and setting: the result for `CC(=O)N[C@@H](Cc1ccc(OP(=O)(O)O)cc1)C(=O)N[C@@H](CC(C)C)C(=O)N1CCC[C@H]1C(=O)Nc1cccc(C(N)=O)c1` [4-[(2S)-2-{[(2S)-1-[(2S)-2-[(3-carbamoylphenyl)carbamoyl]pyrrolidin-1-yl]-4-methyl-1-oxopentan-2-yl]carbamoyl}-2-acetamidoethyl]phenoxyphosphonic acid] (Ac-[pY]LP[3Abz]-NH2) reads 36.6 µM.

The compound `CC(=O)N[C@@H](Cc1ccc(OP(=O)(O)O)cc1)C(=O)N[C@@H](CC(C)C)C(=O)N1CCC[C@H]1C(=O)NCCCC(N)=O` [4-[(2S)-2-{[(2S)-1-[(2S)-2-[(3-carbamoylpropyl)carbamoyl]pyrrolidin-1-yl]-4-methyl-1-oxopentan-2-yl]carbamoyl}-2-acetamidoethyl]phenoxyphosphonic acid] (Ac-[pY]LP[GABA]-NH2) yielded an IC50 of 1.78 µM. Same read-out and setting: the result for `CC(=O)N[C@@H](Cc1ccc(OP(=O)(O)O)cc1)C(=O)N[C@@H](CC(C)C)C(=O)N1CCC[C@H]1C(=O)NCCCCCC(N)=O` [4-[(2S)-2-{[(2S)-1-[(2S)-2-[(5-carbamoylpentyl)carbamoyl]pyrrolidin-1-yl]-4-methyl-1-oxopentan-2-yl]carbamoyl}-2-acetamidoethyl]phenoxyphosphonic acid] (Ac-[pY]LP[Ahx]-NH2) reads 9.78 µM; that for `CC(=O)N[C@@H](Cc1ccc(OP(=O)(O)O)cc1)C(=O)N[C@@H](CC(C)C)C(=O)N1CCC[C@H]1C(=O)N1CCC(CC(N)=O)C1` (stereo partly drawn) [4-[(2S)-2-{[(2S)-1-[(2S)-2-{[3-(carbamoylmethyl)pyrrolidin-1-yl]carbonyl}pyrrolidin-1-yl]-4-methyl-1-oxopentan-2-yl]carbamoyl}-2-acetamidoethyl]phenoxyphosphonic acid], 1.69 µM; that for `CC(=O)N[C@@H](Cc1ccc(OP(=O)(O)O)cc1)C(=O)N[C@@H](CC(C)C)C(=O)N1CCC[C@H]1C(=O)N1CCN(CC(N)=O)CC1` [4-[(2S)-2-{[(2S)-1-[(2S)-2-{[4-(carbamoylmethyl)piperazin-1-yl]carbonyl}pyrrolidin-1-yl]-4-methyl-1-oxopentan-2-yl]carbamoyl}-2-acetamidoethyl]phenoxyphosphonic acid], 1.4 µM.

For the compound `CC(=O)N[C@@H](Cc1ccc(OP(=O)(O)O)cc1)C(=O)N[C@@H](CC(C)C)C(=O)N1CCC[C@H]1C(=O)N[C@@H](CCC(=O)N(C)C)C(=O)N[C@H](C(N)=O)C(C)O` (stereo partly drawn) [4-[(2S)-2-{[(2S)-1-[(2S)-2-{[(1S)-1-{[(1S,2S)-1-carbamoyl-2-hydroxypropyl]carbamoyl}-3-(dimethylcarbamoyl)propyl]carbamoyl}pyrrolidin-1-yl]-4-methyl-1-oxopentan-2-yl]carbamoyl}-2-acetamidoethyl]phenoxyphosphonic acid] (Ac-[pY]LPE(NMe2)[Thr(3ξ)]-NH2), the midpoint of inhibition (pH 7.5, 22 °C), the IC50, lay at 80 µM. Still for that read-out and setting: the result for `CNC(=O)CC[C@H](NC(=O)[C@@H]1CCCN1C(=O)[C@H](CC(C)C)NC(=O)[C@H](Cc1ccc(OP(=O)(O)O)cc1)NC(C)=O)C(=O)N[C@H](C(N)=O)C(C)O` (stereo partly drawn) [4-[(2S)-2-{[(2S)-1-[(2S)-2-{[(1S)-1-{[(1S,2S)-1-carbamoyl-2-hydroxypropyl]carbamoyl}-3-(methylcarbamoyl)propyl]carbamoyl}pyrrolidin-1-yl]-4-methyl-1-oxopentan-2-yl]carbamoyl}-2-acetamidoethyl]phenoxyphosphonic acid] (Ac-[pY]LPE(NHMe)[Thr(3ξ)]-NH2) reads 18.1 µM. On the same count and under the same terms, the result for `CC(=O)N[C@@H](Cc1ccc(OP(=O)(O)O)cc1)C(=O)N[C@@H](CC(C)C)C(=O)N1CCC[C@H]1C(=O)N[C@@H](CC[S+](C)[O-])C(=O)N[C@H](C(N)=O)C(C)O` (stereo partly drawn) [4-[(2S)-2-{[(2S)-1-[(2S)-2-{[(1S)-1-{[(1S,2S)-1-carbamoyl-2-hydroxypropyl]carbamoyl}-3-methanesulfinylpropyl]carbamoyl}pyrrolidin-1-yl]-4-methyl-1-oxopentan-2-yl]carbamoyl}-2-acetamidoethyl]phenoxyphosphonic acid] (Ac-[pY]LP[Met(O)][Thr(3ξ)]-NH2) reads 9.87 µM; that for `CC(=O)N[C@@H](Cc1ccc(OP(=O)(O)O)cc1)C(=O)N[C@@H](CC(C)C)C(=O)N1CCC[C@H]1C(=O)N[C@@H](CCS(C)(=O)=O)C(=O)N[C@H](C(N)=O)C(C)O` (stereo partly drawn) [4-[(2S)-2-{[(2S)-1-[(2S)-2-{[(1S)-1-{[(1S,2S)-1-carbamoyl-2-hydroxypropyl]carbamoyl}-3-methanesulfonylpropyl]carbamoyl}pyrrolidin-1-yl]-4-methyl-1-oxopentan-2-yl]carbamoyl}-2-acetamidoethyl]phenoxyphosphonic acid] (Ac-[pY]LP[Met(O2)][Thr(3ξ)]-NH2), 13.9 µM.

In turn, `CCN(CC)C(=O)[C@H](CCC(N)=O)NC(=O)[C@@H]1CCCN1C(=O)[C@H](CC(C)C)NC(=O)[C@H](Cc1ccc(OP(=O)(O)O)cc1)NC(C)=O` [4-[(2S)-2-{[(2S)-1-[(2S)-2-{[(1S)-3-carbamoyl-1-(diethylcarbamoyl)propyl]carbamoyl}pyrrolidin-1-yl]-4-methyl-1-oxopentan-2-yl]carbamoyl}-2-acetamidoethyl]phenoxyphosphonic acid] (Ac-[pY]LPQ-NEt2) gave an IC50 of 4.22 µM. On to `CC(=O)N[C@@H](Cc1ccc(OP(=O)(O)O)cc1)C(=O)N[C@@H](CC(C)C)C(=O)N1CCC[C@H]1C(=O)N[C@@H](CCC(N)=O)C(=O)N(C)C` [4-[(2S)-2-{[(2S)-1-[(2S)-2-{[(1S)-3-carbamoyl-1-(dimethylcarbamoyl)propyl]carbamoyl}pyrrolidin-1-yl]-4-methyl-1-oxopentan-2-yl]carbamoyl}-2-acetamidoethyl]phenoxyphosphonic acid] (Ac-[pY]LPQ-NMe2), for which the IC50 was 1.85 µM. Same read-out and setting: with `CNC(=O)[C@H](CCC(N)=O)NC(=O)[C@@H]1CCCN1C(=O)[C@H](CC(C)C)NC(=O)[C@H](Cc1ccc(OP(=O)(O)O)cc1)NC(C)=O` [4-[(2S)-2-{[(2S)-1-[(2S)-2-{[(1S)-3-carbamoyl-1-(methylcarbamoyl)propyl]carbamoyl}pyrrolidin-1-yl]-4-methyl-1-oxopentan-2-yl]carbamoyl}-2-acetamidoethyl]phenoxyphosphonic acid] (Ac-[pY]LPQ-NHMe) the figure was 0.882 µM; with `CC(=O)N[C@@H](Cc1ccc(OP(=O)(O)O)cc1)C(=O)N[C@@H](CC(C)C)C(=O)N1CCC[C@H]1C(=O)N[C@@H](CCC(N)=O)C(=O)N[C@H](C)c1ccccc1` [4-[(2S)-2-{[(2S)-1-[(2S)-2-{[(1S)-3-carbamoyl-1-{[(1R)-1-phenylethyl]carbamoyl}propyl]carbamoyl}pyrrolidin-1-yl]-4-methyl-1-oxopentan-2-yl]carbamoyl}-2-acetamidoethyl]phenoxyphosphonic acid] (Ac-[pY]LPQ-{NH(1R-phenylethyl)}), 0.801 µM.

As usually defined, the IC50 is the concentration needed to halve the response being measured. Lower therefore signals inhibition by little substance.
